Data from a melting point compilation (Tetko et al.).

Row | melting point [°C] | SMILES
1 | 164 to 166 | Fc1ccccc1-c1nnc2ccc(Cl)nn12
2 | 115 to 117 | Cc1nc(C=O)c2ccccn12
3 | 218 to 220 | O=C(O)C1CCCCN1Cc1ccc(F)cc1 (stereo not drawn)
4 | 178 to 180 | Cc1cc(C(=O)NC2CCCCC2)ccc1N
5 | 239 to 241 | O=C(O)CCNC(=O)c1ccncc1
6 | 146 to 148 | O=C(O)CN1CCCC1CO (stereo not drawn)
7 | 123 to 125 | N#Cc1ccc(S(=O)(=O)NCC2CCCO2)cc1 (stereo not drawn)
8 | 142 to 144 | O=C(O)c1ccccc1NCCO
9 | 191 to 193 | O=c1[nH]c(Nc2ccccc2)cc2ccccc12
10 | 186 to 188 | Cc1cc(N)ncn1
11 | 158 to 160 | CC(C)c1cc(C(=O)O)n(C)n1
12 | 115 to 117 | CS(=O)(=O)C1CSCCN1 (stereo not drawn)
13 | 208 to 210 | COc1ccc(C2C(C(N)=O)CC(=O)N2C)cc1 (stereo not drawn)
14 | 50 to 52 | CC(C)c1ccc(C=O)cc1[N+](=O)[O-]
15 | 243 to 245 | O=C(CCl)Nc1ccc(NC(=O)c2cccs2)cc1
16 | 49 to 51 | Nc1cnn(Cc2ccc(Cl)cc2)c1
17 | 181 to 183 | Oc1cccc(-n2cncn2)c1
18 | 187 to 189 | O=C(O)c1ccccc1C(=O)c1ccc(Cl)c(Cl)c1
19 | 206 to 208 | O=C(O)C1CC(O)CN1C(=O)c1ccc(F)cc1 (stereo not drawn)
20 | 93 to 95 | NC(=O)COc1cccnc1
21 | 286 to 288 | CCn1c(S)nc2ccsc2c1=O
22 | 86 to 88 | Cn1cc(C=O)c(-c2cccnc2)n1
23 | 193 to 195 | Nc1ccc(CC(=O)N2CCN(c3ncccn3)CC2)cc1

Row | melting point [°C] | SMILES
24 | 96 to 98 | O=C1OC(=O)c2cc(Cl)ccc21
25 | 140 to 142 | NC(=O)c1ccc2c(c1)CCCC2
26 | 145 to 147 | NCC(c1cccs1)c1c[nH]c2ccccc12 (stereo not drawn)
27 | 139 to 141 | N#CCC(=O)c1cc(Cl)cc(Cl)c1
28 | 164 to 166 | COc1ccc(C(=O)Nc2nc(C)cs2)cc1N
29 | 230 to 232 | O=C(O)C=Cc1ccc([N+](=O)[O-])o1
30 | 184 to 186 | O=C(O)Cc1ccc(NC(=O)c2cscn2)cc1
31 | 79 to 81 | CCN(Cc1ccccc1)S(N)(=O)=O
32 | 193 to 195 | Fc1ccc(Br)c(-c2nn[nH]n2)c1
33 | 181 to 183 | O=C1CCS(=O)(=O)c2c(F)cccc21
34 | 90 to 92 | NC(=S)C1CN(Cc2ccccc2)CCO1 (stereo not drawn)
35 | 94 to 96 | O=C1OC(=O)c2cc(F)c(F)cc21
36 | 123 to 125 | COc1cc(C#N)ccc1Oc1ccc(N)cc1
37 | 105 to 107 | Nc1ccc(S(=O)(=O)N2CCCCCC2)cc1
38 | 53 to 55 | CC1NCCn2c(Cl)ccc21 (stereo not drawn)
39 | 124 to 126 | Cc1ccc(N2CCOC2=O)cc1N
40 | 111 to 113 | O=[N+]([O-])c1ccc(O)c(Br)c1
41 | 177 to 179 | Nc1ccc(Cn2cnc3ccccc32)cc1
42 | 150 to 152 | COc1ccc(C(=O)N2CCOCC2)cc1N
43 | 217 to 219 | NC(=O)c1sc2ccccc2c1N
44 | 231 to 233 | Sc1nnc(-c2sc3ccccc3c2Cl)o1
45 | 199 to 201 | Cc1cc(F)ccc1S(=O)(=O)Nc1ccc(C(=O)O)cc1
46 | 122 to 124 | CC(C)(C)NS(=O)(=O)c1ccccc1NN

Row | melting point [°C] | SMILES
47 | 196 to 198 | NC(=O)c1csc(N)n1
48 | 45 to 47 | O=[N+]([O-])c1cncc(Br)c1Cl
49 | 109 to 111 | CCCCOc1ccc(C=CC(=O)O)cc1OCC
50 | 186 to 188 | O=C(O)C1CCN(c2ccc(Cl)nn2)CC1
51 | 52 to 54 | O=Cc1c(O)cccc1Cl
52 | 231 to 233 | O=C(O)c1cc(-c2ccc(Cl)s2)[nH]n1
53 | 235 to 237 | O=C(O)Cn1[nH]c(=O)ccc1=O
54 | 116 to 118 | C#CCN1CCCCC1C(=O)NC (stereo not drawn)
55 | 188 to 190 | O=C(O)C(=O)c1ccc(Br)cc1O
56 | 82 to 84 | CCOc1ccccc1C(=O)N1CCNCC1
57 | 87 to 89 | COc1ccccc1-c1nnc(S)n1CCc1ccccc1
58 | 149 to 151 | O=C(O)C1CCN(S(=O)(=O)c2cc(F)ccc2F)CC1
59 | 299 to 301 | Cn1c(=O)c2[nH]c(Br)nc2n(C)c1=O
60 | 78 to 80 | CCOC(=O)C1CC1c1ccc(OC)cc1 (stereo not drawn)
61 | 101 to 104 | CCC(C)C(=O)NCC(=O)O (stereo not drawn)
62 | 148 to 150 | NC(=O)c1ccsc1NC(=O)CCl
63 | 96 to 98 | O=C(O)C(Oc1ccc(F)cc1F)c1ccccc1 (stereo not drawn)
64 | 154 to 156 | Cn1cc(C#N)c(=O)n(C)c1=O
65 | 55 to 57 | CC1CC(=O)c2c(O)ccc(Cl)c21 (stereo not drawn)
66 | 159 to 161 | NC(=O)Cn1cc(N)cn1
67 | 178 to 180 | O=C(O)Cn1c(=O)oc2ccccc21
68 | 98 to 100 | CNS(=O)(=O)c1cccc(S(=O)(=O)Cl)c1
69 | 159 to 161 | Cc1nccn1Cc1ccc(N)cc1

Row | melting point [°C] | SMILES
70 | 154 to 156 | CS(=O)(=O)Nc1cc(N)ccc1F
71 | 136 to 138 | COc1cc(N)ncc1Br
72 | 72 to 74 | COC(=O)c1cc(-c2cccc(C(F)(F)F)c2)ccc1N
73 | 96 to 98 | Cc1nc(C2COCCN2C(=O)OC(C)(C)C)no1 (stereo not drawn)
74 | 111 to 113 | Clc1ccnc2ccc(Br)cc12
75 | 196 to 198 | C/C(=N\O)c1cccc(NC(=O)c2ccc(F)cc2)c1
76 | 243 to 245 | CS(=O)(=O)c1nnc(N)[nH]1
77 | 65 to 67 | CC(C)(C)C(O)C(=O)O (stereo not drawn)
78 | 202 to 204 | Cc1cc(NC(=O)c2ccccc2I)sc1C(=O)O
79 | 110 to 112 | Nc1ccccc1C(=O)NCCc1ccccc1
80 | 188 to 190 | Cc1cc(O)cc(=O)o1
81 | 146 to 148 | Sc1nc(-c2ccccn2)no1
82 | 94 to 96 | O=C(NCc1ccc(Cl)cc1)n1ccnc1
83 | 259 to 261 | Cc1cc(C(=O)O)c2cc(Br)ccc2n1
84 | 72 to 74 | C#CCOc1ccc(C(C)=O)cc1
85 | 138 to 140 | O=C(O)c1sccc1S(=O)(=O)NCc1cccs1
86 | 238 to 240 | CS(=O)(=O)c1ccc(C(=O)Nc2c(Cl)cc(N)cc2Cl)cc1
87 | 203 to 205 | Nc1nc2cc3c(cc2s1)OCCO3
88 | 109 to 111 | CC(C(=O)O)S(=O)(=O)Cc1cccc(Br)c1 (stereo not drawn)
89 | 125 to 130 | Nc1ccccc1C(=O)NCC(F)(F)F
90 | 112 to 114 | Nc1sc2c(c1C(=O)NCc1ccccc1)CCCC2
91 | 109 to 111 | CCOc1ccc(Br)cc1S(=O)(=O)Cl
92 | 233 to 235 | Cc1cccc2c(=O)[nH]c(CC#N)nc12

Row | melting point [°C] | SMILES
93 | 310 to 312 | Cc1ncc(C(=O)O)c(=O)[nH]1
94 | 135 to 137 | Clc1ccc(-c2nnc(Br)s2)cc1
95 | 164 to 166 | O=C(O)c1ccc(CO)o1
96 | 99 to 101 | Nc1ccn(-c2nccs2)n1
97 | 134 to 136 | CCN(CC)S(=O)(=O)c1ccc(Oc2ccc(C=O)cc2OC)c([N+](=O)[O-])c1
98 | 35 to 37 | Cc1cc(S(=O)(=O)Cl)sc1Br
99 | 155 to 157 | COC(=O)c1ncsc1S(N)(=O)=O
100 | 64 to 66 | Cc1csc(NC2CC2)n1
101 | 171 to 173 | Nc1ccc(S(N)(=O)=O)cn1
102 | 31 to 33 | Clc1ccc(OCC2CO2)cc1 (stereo not drawn)
103 | 229 to 231 | NS(=O)(=O)c1ccc(C(=O)O)s1
104 | 179 to 181 | NC(=O)NC(=O)CCCCl
105 | 137 to 139 | CC1(C)C(=O)NS1(=O)=O
106 | 175 to 177 | CC1CN(c2ccc(NC(=O)CCl)cc2)CC(C)O1 (stereo not drawn)
107 | 183 to 185 | NC(=O)Cc1ccc(Cl)cc1
108 | 251 to 253 | O=C(O)c1ccc(Oc2ccc(Br)cc2)c(F)c1
109 | 124 to 126 | N#Cc1ccc(-c2cnc(CCl)o2)cc1
110 | 37 to 39 | COC(=O)C1COc2ccccc2O1 (stereo not drawn)
111 | 156 to 158 | NC(=S)CN1C(=O)CCC1=O
112 | 139 to 141 | CCCCc1ccc(N2CC(C(=O)O)CC2=O)cc1 (stereo not drawn)
113 | 169 to 171 | O=C(O)c1ccn(-c2ccc(Cl)cc2)n1
114 | 32 to 34 | N#CC=C(Cl)c1ccccc1
115 | 159 to 161 | NC(=O)Nc1ccc2c(c1)OCCO2

Row | melting point [°C] | SMILES
116 | 103 to 105 | O=C(O)C1CCN(C(=O)c2ccoc2)CC1
117 | 135 to 137 | COc1cc(Br)ccc1C#N
118 | 63 to 65 | CC(=O)c1cncnc1
119 | 369 to 371 | Cc1cc(C)n2nc(N)nc2n1
120 | 79 to 81 | CN(CCCNC(=O)CCl)S(C)(=O)=O
121 | 87 to 89 | CS(=O)(=O)c1cccc(S(=O)(=O)Cl)c1
122 | 101 to 103 | CCOC(=O)c1c(C)nn(C)c1N
123 | 135 to 137 | Cn1ccnc1C(O)C(F)(F)F (stereo not drawn)
124 | 213 to 215 | O=C(O)C=Cc1ccc(S(=O)(=O)NCc2ccco2)cc1
125 | 103 to 105 | Nc1cc(C2CCOCC2)[nH]n1
126 | 121 to 123 | Cc1n[nH]c(C)c1[N+](=O)[O-]
127 | 125 to 127 | Cc1nc(C)c(-c2csc(N)n2)s1
128 | 123 to 125 | N#Cc1cccc(OCC(=O)O)c1
129 | 119 to 121 | CC(C)(C)OC(=O)Nc1cc2c(cc1N)OCCO2
130 | 55 to 57 | Oc1ccccc1OCc1ccc(F)cc1
131 | 124 to 126 | O=C(c1ccc(Br)cc1)c1cccnc1
132 | 199 to 201 | O=Cc1sc(=O)[nH]c1Cl
133 | 181 to 183 | O=C(O)CCS(=O)(=O)c1ccc(Cl)cc1
134 | 230 to 232 | CCC1CCC2(CC1)NC(=O)NC2=O (stereo not drawn)
135 | 58 to 60 | N#CCCSc1ccc(C(F)(F)F)cc1N
136 | 169 to 171 | Cc1ccc(-c2nnc(CCC(=O)O)o2)cc1
137 | 174 to 176 | CC(CO)NC(=O)c1ccc(N)cc1 (stereo not drawn)
138 | 119 to 121 | N#Cc1cccc(CN2C(=O)CCc3ccccc32)c1

Row | SMILES | melting point [°C]
139 | O=C(CCl)N1CCCCCCC1 | 66 to 68
140 | Cc1ccc2c(CCN)c[nH]c2c1 | 139 to 141
141 | CC(C)(C)C(=O)N1CCC(=O)CC1 | 94 to 96
142 | Cc1cc(C(=O)O)nn1C(C)C1CC1 (stereo not drawn) | 130 to 132
143 | CS(=O)(=O)CCS(=O)(=O)Cl | 119 to 121
144 | O=c1c2ccccc2nc(S)n1-c1nnc[nH]1 | 234 to 236
145 | O=C1CC2(CCCC2)CN1 | 68 to 70
146 | Nc1nc(N)nc(CCl)n1 | 221 to 223
147 | OC1CNCC1N1CCCC1 (stereo not drawn) | 82 to 84
148 | C=CCn1cc(C(=O)O)c2ccccc21 | 159 to 161
